Data from PMC12775434, “Ultra-large virtual screening unveils potent agonists of the neuromodulatory orphan receptor GPR139” (Nature Communications, 2025).
Several values for one entry are separate records, joined by “and”; a condition that tells them apart may be missing. Equal values may be shown once. Read-outs that look alike come from different tables or passages of the source.

How the values were obtained:
Type in all cases: cell-based
GPR139 [1] = biological target: T1, GPR139 (Homo sapiens, UniProt Q6DWJ6); experiment: Ca2+ mobilization assay, antagonist mode (EC80 800 nM Lundbeck Cmp 1a after 20 min preincubation), GPR139-CHOk1; settings: individual replicates (Supplementary Figure 4)
T1 sequence (Q6DWJ6 1-353): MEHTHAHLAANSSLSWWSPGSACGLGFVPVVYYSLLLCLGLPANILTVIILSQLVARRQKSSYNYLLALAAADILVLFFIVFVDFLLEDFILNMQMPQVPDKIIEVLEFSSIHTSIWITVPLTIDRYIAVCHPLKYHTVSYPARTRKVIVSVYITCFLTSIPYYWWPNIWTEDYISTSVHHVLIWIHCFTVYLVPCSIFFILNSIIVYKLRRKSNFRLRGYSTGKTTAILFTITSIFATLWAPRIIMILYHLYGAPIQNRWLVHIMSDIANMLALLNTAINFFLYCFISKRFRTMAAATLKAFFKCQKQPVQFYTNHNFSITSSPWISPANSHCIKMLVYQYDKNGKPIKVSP
Summary of the method: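 Fluo-4-loaded GPR139-CHOk1 cells in HEPES-buffered HBSS (pH 7.4, 2.5 mM probenecid) given test compounds at 10 µM, then after 20 min challenged with 800 nM Lundbeck Cmp 1a (EC80). Calcium fluorescence read at 37 °C, 485/525 nm.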

GPR139 [2] = biological target: T1, GPR139; experiment: Ca2+ mobilization assay, agonist mode, stable GPR139-CHOk1 cell line; settings: for Emax: normalized to Lundbeck Cmp 1a, read-out: Emax (%) Ca2+
Summary of the method: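 Agonist activity of compounds is assessed in stably transfected CHO-K1 cells using the calcium dye Fluo-4 at 37 °C in HEPES-buffered HBSS (pH 7.4). Efficacy is expressed relative to the reference agonist Lundbeck Cmp 1a, set as 100%.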

[3] = biological target: T2, human muscarinic acetylcholine M1 receptor (M1R) (Homo sapiens, UniProt P11229); experiment: Ca2+ mobilization counter-screen in M1R-CHOk1 cells; settings: individual replicates (Supplementary Figure 5)
T2 sequence (P11229 1-460): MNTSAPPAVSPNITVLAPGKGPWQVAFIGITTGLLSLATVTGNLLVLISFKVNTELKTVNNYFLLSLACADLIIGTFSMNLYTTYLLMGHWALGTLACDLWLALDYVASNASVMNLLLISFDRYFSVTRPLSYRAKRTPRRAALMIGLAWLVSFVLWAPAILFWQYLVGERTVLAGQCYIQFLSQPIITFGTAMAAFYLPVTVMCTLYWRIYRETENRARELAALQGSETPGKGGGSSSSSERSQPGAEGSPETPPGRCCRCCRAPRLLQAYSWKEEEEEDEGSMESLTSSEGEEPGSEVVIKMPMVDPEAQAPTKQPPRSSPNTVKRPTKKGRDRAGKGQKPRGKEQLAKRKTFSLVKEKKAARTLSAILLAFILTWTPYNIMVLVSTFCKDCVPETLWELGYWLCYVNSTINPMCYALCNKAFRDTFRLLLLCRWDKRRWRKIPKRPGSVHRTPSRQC
Method: Primary screening and pharmacological characterization of compounds were performed using a CHO-K1 cell line that stably expresses human GPR139 (GPR139-CHOk1). The GPR139-CHOk1 cell line was kindly provided by H. Lundbeck A/S, Denmark[24]. GPR139-CHOk1 cells were grown in Ham’s F-12 Kaighn’s Modification Medium (ThermoFisher #21127030) supplemented with 10% dialyzed fetal bovine serum (US origin, ThermoFisher #26400044), 100 units/mL Penicillin-Streptomycin (ThermoFisher #15140122), and 1 mg/mL Geneticin (ThermoFisher #11811031). […] M1R-CHOk1 cells were purchased from The Missouri S&T cDNA Resource Center (#CEM100TN00). M1R-CHOk1 cells were grown in Ham’s F12 Medium (ThermoFisher #21765029) supplemented with 10% fetal bovine serum (Brazilian origin, ThermoFisher #10270106), 100 units/mL Penicillin-Streptomycin, and 0.25 mg/mL Geneticin. HEK293A cells transiently transfected with GPR139 were used for additional pharmacological assessment of signaling pathways activated by GPR139. HEK239A cells were generously provided by Dr. Asuka Inoue, Tohoku University, Japan. HEK293A cells were grown in Dulbecco’s Modified Eagle Medium (ThermoFisher #31966047) supplemented with 10% dialyzed fetal bovine serum and 100 units/mL Penicillin-Streptomycin. Cell lines were maintained at 37 °C in humidified incubator equilibrated with 5% CO2.
30,000 GPR139- or M1R-CHOk1 cells/well were seeded in black clear bottom tissue culture treated 96-well plates (Greiner #655090) and grown for 20–24 h. Cells were washed with HEPES buffer (Hank’s Balanced Salt Solution (HBBS) supplemented with 20 mM HEPES, 1 mM MgCl2, and 1 mM CaCl2; pH 7.4). Cells were loaded with 50 µL of 2 µM Fluo-4 AM dye (ThermoFisher #F14202) in HEPES buffer supplemented with 2.5 mM probenecid and 0.01% Pluronic F-68 (ThermoFisher #24040032) for 1 h at 37 °C. Cells were washed with HEPES buffer. 50 µL HEPES buffer supplemented with 2.5 mM probenecid was added, and the cells were incubated for 10 min at 37 °C before measurement. 50 µL test compounds diluted in HEPES buffer from DMSO stocks (final DMSO concentration of maximally 0.3%) were added automatically after baseline measurements. The intracellular calcium mobilization was measured on a FlexStation 3 Multimode Microplate Reader (Molecular Devices) at 37 °C with filters for excitation of 485 nm and emission of 525 nm.

[4] = Agonist mode, individual replicates (Supplementary Figure 4)
[5] = Supplementary Table 2, mean ± SEM
[6] = log [Compound] M = -4.5, individual replicate columns
[7] = log [Compound] M = -5.0, individual replicate columns
[8] = log [Compound] M = -5.5, individual replicate columns
[9] = log [Compound] M = -6.0, individual replicate columns
[10] = log [Compound] M = -6.5, individual replicate columns
[11] = log [Compound] M = -7.0, individual replicate columns
[12] = log [Compound] M = -7.5, individual replicate columns
[13] = log [Compound] M = -8.0, individual replicate columns
[14] = log [Compound] M = -8.5, individual replicate columns
[15] = log [Compound] M = -9.0, individual replicate columns

EC50 (GPR139 [2]; Supplementary Table 2, mean ± SEM, read-out: pEC50 Ca2+ (converted))	Emax (GPR139 [2]; [5])	EC50 (GPR139 [2]; GPR139-CHOk1, read-out: EC50, Ca2+ mobilization)	SMILES	Ca2+ signal (% of Cmp 1a) (GPR139 [1])	Ca2+ signal (% of Cmp 1a) (GPR139 [2]; [4])	Ca2+ signal (% of Cmp 1a) (GPR139 [2]; [6])	Ca2+ signal (% of Cmp 1a) (GPR139 [2]; [7])	Ca2+ signal (% of Cmp 1a) (GPR139 [2]; [8])	Ca2+ signal (% of Cmp 1a) (GPR139 [2]; [9])	Ca2+ signal (% of Cmp 1a) (GPR139 [2]; [10])	Ca2+ signal (% of Cmp 1a) (GPR139 [2]; [11])	Ca2+ signal (% of Cmp 1a) (GPR139 [2]; [12])	Ca2+ signal (% of Cmp 1a) (GPR139 [2]; [13])	Ca2+ signal (% of Cmp 1a) (GPR139 [2]; [14])	Ca2+ signal (% of Cmp 1a) (GPR139 [2]; [15])	Ca2+ signal (% of Carbachol) [3]
200 nM	86 ± 8%	–	Cc1ccc(-c2nc(CC(=O)NC(C)c3ccccc3)no2)s1 (stereo not drawn) [Compound 1.9, CC(C1=CC=CC=C1)NC(CC2=NOC(C3=CC=C(S3)C)=N2)=O]	1.67 % of Cmp 1a and 13 % of Cmp 1a	88 % of Cmp 1a and 93 % of Cmp 1a and 63 % of Cmp 1a	76 % of Cmp 1a and 96 % of Cmp 1a and 87 % of Cmp 1a and 68 % of Cmp 1a	86 % of Cmp 1a and 100 % of Cmp 1a and 93 % of Cmp 1a and 70 % of Cmp 1a	70 % of Cmp 1a and 105 % of Cmp 1a and 84 % of Cmp 1a and 64 % of Cmp 1a	66 % of Cmp 1a and 73 % of Cmp 1a and 71 % of Cmp 1a and 65 % of Cmp 1a	37 % of Cmp 1a and 55 % of Cmp 1a and 47 % of Cmp 1a and 52 % of Cmp 1a	12 % of Cmp 1a and 23 % of Cmp 1a and 28 % of Cmp 1a and 35 % of Cmp 1a	2.33 % of Cmp 1a and 12 % of Cmp 1a and 15 % of Cmp 1a and 9 % of Cmp 1a	-1.67 % of Cmp 1a (2×) and -4 % of Cmp 1a and 0 % of Cmp 1a	-4.67 % of Cmp 1a and -2 % of Cmp 1a (2×) and 2 % of Cmp 1a	-5 % of Cmp 1a and 7 % of Cmp 1a and -15 % of Cmp 1a and -4.33 % of Cmp 1a	-5 % of Carbachol and 6 % of Carbachol
–	111 ± 5%	200 nM	COc1cccc(-c2nc(CC(=O)NC(C)c3ccccc3)no2)c1 (stereo not drawn) [Compound 1.10, COC1=CC(C2=NC(CC(NC(C3=CC=CC=C3)C)=O)=NO2)=CC=C1]	0.667 % of Cmp 1a and -2.67 % of Cmp 1a and -13 % of Cmp 1a	119 % of Cmp 1a and 102 % of Cmp 1a and 114 % of Cmp 1a	112 % of Cmp 1a and 110 % of Cmp 1a and 101 % of Cmp 1a	114 % of Cmp 1a (2×) and 92 % of Cmp 1a	118 % of Cmp 1a and 113 % of Cmp 1a and 104 % of Cmp 1a	92 % of Cmp 1a and 83 % of Cmp 1a and 79 % of Cmp 1a	70 % of Cmp 1a and 58 % of Cmp 1a and 60 % of Cmp 1a	51 % of Cmp 1a and 30 % of Cmp 1a and 40 % of Cmp 1a	20 % of Cmp 1a and 5.67 % of Cmp 1a and 19 % of Cmp 1a	10 % of Cmp 1a and -8 % of Cmp 1a and 0.333 % of Cmp 1a	11 % of Cmp 1a and -17 % of Cmp 1a and 4 % of Cmp 1a	16 % of Cmp 1a and -3 % of Cmp 1a and 6.33 % of Cmp 1a	12 % of Carbachol and -9 % of Carbachol and 13 % of Carbachol
